In PubChem BioAssay AID1918932 (Molecular Pharmacology Branch, DTP, NCI, 2023):

Tested on: 171881-019-R-J1-PDC complex spheroid viability
Assay: Anticancer human tumor 171881-019-R-J1-PDC patient-derived invasive breast carcinoma cell line growth inhibition
Conditions: for IC50: curve of first compound; for viability, T/C: stronger effect = lower value
Outline: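 Multicellular complex spheroids of tumor cells with human endothelial cells (HUVEC) and mesenchymal stem cells; the LSD1 inhibitor iadademstat was combined with standard-of-care or investigational agents. Top concentration at or near clinical Cmax, half-log dilutions; final DMSO ≤0.25%.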

[1] = second compound 0.1 µM, first compound 0.0316 µM
[2] = second compound 0.1 µM, first compound 0.1 µM
[3] = second compound 0.1 µM, first compound 0.316 µM
[4] = second compound 0.1 µM, first compound 1 µM
[5] = second compound 0.1 µM, first compound 3.16 µM
[6] = second compound 0.1 µM, first compound 10 µM
[7] = second compound 0.316 µM, first compound 0.0316 µM
[8] = second compound 0.316 µM, first compound 0.1 µM
[9] = second compound 0.316 µM, first compound 0.316 µM
[10] = second compound 0.316 µM, first compound 1 µM
[11] = second compound 0.316 µM, first compound 3.16 µM
[12] = second compound 0.316 µM, first compound 10 µM
[13] = second compound 1 µM, first compound 0.0316 µM
[14] = second compound 1 µM, first compound 0.1 µM
[15] = second compound 1 µM, first compound 0.316 µM
[16] = second compound 1 µM, first compound 1 µM
[17] = second compound 1 µM, first compound 3.16 µM
[18] = second compound 1 µM, first compound 10 µM
[19] = second compound 3.16 µM, first compound 0.0316 µM
[20] = second compound 3.16 µM, first compound 0.1 µM
[21] = second compound 3.16 µM, first compound 0.316 µM
[22] = second compound 3.16 µM, first compound 1 µM
[23] = second compound 3.16 µM, first compound 3.16 µM
[24] = second compound 3.16 µM, first compound 10 µM
[25] = second compound 10 µM, first compound 0.0316 µM
[26] = second compound 10 µM, first compound 0.1 µM
[27] = second compound 10 µM, first compound 0.316 µM
[28] = second compound 10 µM, first compound 1 µM
[29] = second compound 10 µM, first compound 3.16 µM
[30] = second compound 10 µM, first compound 10 µM
[31] = second compound 0.1 µM, first compound 0.00949 µM
[32] = second compound 0.1 µM, first compound 0.03 µM
[33] = second compound 0.1 µM, first compound 0.0949 µM
[34] = second compound 0.1 µM, first compound 0.3 µM
[35] = second compound 0.316 µM, first compound 0.00949 µM
[36] = second compound 0.316 µM, first compound 0.03 µM
[37] = second compound 0.316 µM, first compound 0.0949 µM
[38] = second compound 0.316 µM, first compound 0.3 µM
[39] = second compound 1 µM, first compound 0.00949 µM
[40] = second compound 1 µM, first compound 0.03 µM
[41] = second compound 1 µM, first compound 0.0949 µM
[42] = second compound 1 µM, first compound 0.3 µM
[43] = second compound 3.16 µM, first compound 0.00949 µM
[44] = second compound 3.16 µM, first compound 0.03 µM
[45] = second compound 3.16 µM, first compound 0.0949 µM
[46] = second compound 3.16 µM, first compound 0.3 µM
[47] = second compound 10 µM, first compound 0.00949 µM
[48] = second compound 10 µM, first compound 0.03 µM
[49] = second compound 10 µM, first compound 0.0949 µM
[50] = second compound 10 µM, first compound 0.3 µM
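Note: spheroids exposed to agents for 7 days after 3 days growth.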

SMILES: CC1(C)CCC(CN2CCN(c3ccc(C(=O)NS(=O)(=O)c4ccc(NCC5CCOCC5)c([N+](=O)[O-])c4)c(Oc4cnc5[nH]ccc5c4)c3)CC2)=C(c2ccc(Cl)cc2)C1 + NC1CCC(NC2CC2c2ccccc2)CC1
- IC50 (second compound 0.1 µM): 2210 nM
- IC50 (second compound 0.316 µM): 2300 nM
- IC50 (second compound 1 µM): 2110 nM
- IC50 (second compound 3.16 µM): 1720 nM
- IC50 (second compound 10 µM): 2010 nM
- viability, T/C [1]: 71.9%
- viability, T/C [2]: 92.7%
- viability, T/C [3]: 68.4%
- viability, T/C [4]: 67.2%
- viability, T/C [5]: 42.7%
- viability, T/C [6]: 2.57%
- viability, T/C [7]: 79.3%
- viability, T/C [8]: 83.8%
- viability, T/C [9]: 68.4%
- viability, T/C [10]: 66.9%
- viability, T/C [11]: 44.4%
- viability, T/C [12]: 2.71%
- viability, T/C [13]: 88.7%
- viability, T/C [14]: 89.3%
- viability, T/C [15]: 73.8%
- viability, T/C [16]: 74.3%
- viability, T/C [17]: 37.9%
- viability, T/C [18]: 7.6%
- viability, T/C [19]: 79.6%
- viability, T/C [20]: 74.9%
- viability, T/C [21]: 78.7%
- viability, T/C [22]: 61.4%
- viability, T/C [23]: 35.7%
- viability, T/C [24]: 3.1%
- viability, T/C [25]: 91.3%
- viability, T/C [26]: 95.5%
- viability, T/C [27]: 76%
- viability, T/C [28]: 67.5%
- viability, T/C [29]: 39.5%
- viability, T/C [30]: 2.78%

SMILES: CC1COCCN1c1cc(C2(S(C)(=N)=O)CC2)nc(-c2ccnc3[nH]ccc23)n1 (stereo not given) + NC1CCC(NC2CC2c2ccccc2)CC1
- IC50 (second compound 0.1 µM): 1680 nM
- IC50 (second compound 0.316 µM): 1840 nM
- IC50 (second compound 1 µM): 1780 nM
- IC50 (second compound 3.16 µM): 1830 nM
- IC50 (second compound 10 µM): 2050 nM
- viability, T/C [1]: 85.4%
- viability, T/C [2]: 85%
- viability, T/C [3]: 96.4%
- viability, T/C [4]: 73.3%
- viability, T/C [5]: 20.8%
- viability, T/C [6]: 9.16%
- viability, T/C [7]: 85.1%
- viability, T/C [8]: 84.2%
- viability, T/C [9]: 94.5%
- viability, T/C [10]: 81.7%
- viability, T/C [11]: 21.7%
- viability, T/C [12]: 9.42%
- viability, T/C [13]: 88.8%
- viability, T/C [14]: 85.4%
- viability, T/C [15]: 87%
- viability, T/C [16]: 76.2%
- viability, T/C [17]: 23.7%
- viability, T/C [18]: 9.58%
- viability, T/C [19]: 88.8%
- viability, T/C [20]: 83%
- viability, T/C [21]: 86.1%
- viability, T/C [22]: 78.7%
- viability, T/C [23]: 24.2%
- viability, T/C [24]: 11.3%
- viability, T/C [25]: 81.8%
- viability, T/C [26]: 105%
- viability, T/C [27]: 84.7%
- viability, T/C [28]: 84.2%
- viability, T/C [29]: 29.4%
- viability, T/C [30]: 9.99%

SMILES: CCN(c1cc(-c2ccc(CN3CCOCC3)cc2)cc(C(=O)NCc2c(C)cc(C)[nH]c2=O)c1C)C1CCOCC1 + NC1CCC(NC2CC2c2ccccc2)CC1
- IC50 (second compound 0.1 µM): 2670 nM
- IC50 (second compound 0.316 µM): 2850 nM
- IC50 (second compound 1 µM): 2680 nM
- IC50 (second compound 3.16 µM): 2730 nM
- IC50 (second compound 10 µM): 2880 nM
- viability, T/C [31]: 76.3%
- viability, T/C [32]: 85%
- viability, T/C [33]: 81.3%
- viability, T/C [34]: 101%
- viability, T/C (second compound 0.1 µM, first compound 0.949 µM): 74.1%
- viability, T/C (second compound 0.1 µM, first compound 3 µM): 47.3%
- viability, T/C [35]: 84.7%
- viability, T/C [36]: 78.2%
- viability, T/C [37]: 72.6%
- viability, T/C [38]: 94.3%
- viability, T/C (second compound 0.316 µM, first compound 0.949 µM): 76.6%
- viability, T/C (second compound 0.316 µM, first compound 3 µM): 48.8%
- viability, T/C [39]: 69.2%
- viability, T/C [40]: 77.3%
- viability, T/C [41]: 73.6%
- viability, T/C [42]: 88.7%
- viability, T/C (second compound 1 µM, first compound 0.949 µM): 79.9%
- viability, T/C (second compound 1 µM, first compound 3 µM): 47%
- viability, T/C [43]: 80.6%
- viability, T/C [44]: 81.7%
- viability, T/C [45]: 84.9%
- viability, T/C [46]: 81.8%
- viability, T/C (second compound 3.16 µM, first compound 0.949 µM): 70.3%
- viability, T/C (second compound 3.16 µM, first compound 3 µM): 48.3%
- viability, T/C [47]: 80.4%
- viability, T/C [48]: 75.1%
- viability, T/C [49]: 76.5%
- viability, T/C [50]: 90.7%
- viability, T/C (second compound 10 µM, first compound 0.949 µM): 77.9%
- viability, T/C (second compound 10 µM, first compound 3 µM): 49%

SMILES: Nc1ncn(C2CC(O)C(CO)S2)c(=O)n1 (stereo not given) + NC1CCC(NC2CC2c2ccccc2)CC1
- IC50 (second compound 0.1 µM): 193 nM
- IC50 (second compound 0.316 µM): 175 nM
- IC50 (second compound 1 µM): 192 nM
- IC50 (second compound 3.16 µM): 202 nM
- IC50 (second compound 10 µM): 229 nM
- viability, T/C (second compound 0.1 µM, first compound 0.000949 µM): 85.7%
- viability, T/C (second compound 0.1 µM, first compound 0.003 µM): 82.5%
- viability, T/C [31]: 94.3%
- viability, T/C [32]: 105%
- viability, T/C [33]: 70.9%
- viability, T/C [34]: 37.2%
- viability, T/C (second compound 0.316 µM, first compound 0.000949 µM): 91.2%
- viability, T/C (second compound 0.316 µM, first compound 0.003 µM): 75.8%
- viability, T/C [35]: 90.9%
- viability, T/C [36]: 116%
- viability, T/C [37]: 66.4%
- viability, T/C [38]: 35.7%
- viability, T/C (second compound 1 µM, first compound 0.000949 µM): 73.4%
- viability, T/C (second compound 1 µM, first compound 0.003 µM): 84%
- viability, T/C [39]: 94.8%
- viability, T/C [40]: 101%
- viability, T/C [41]: 66.8%
- viability, T/C [42]: 39.3%
- viability, T/C (second compound 3.16 µM, first compound 0.000949 µM): 85.1%
- viability, T/C (second compound 3.16 µM, first compound 0.003 µM): 87.5%
- viability, T/C [43]: 111%
- viability, T/C [44]: 109%
- viability, T/C [45]: 66.6%
- viability, T/C [46]: 41.3%
- viability, T/C (second compound 10 µM, first compound 0.000949 µM): 85.4%
- viability, T/C (second compound 10 µM, first compound 0.003 µM): 90.8%
- viability, T/C [47]: 98.8%
- viability, T/C [48]: 93.8%
- viability, T/C [49]: 69.1%
- viability, T/C [50]: 44.1%

SMILES: O=C(C=Cn1cnc(-c2cc(C(F)(F)F)cc(C(F)(F)F)c2)n1)NNc1cnccn1 + NC1CCC(NC2CC2c2ccccc2)CC1
- IC50 (second compound 0.1 µM): < 3.16 nM
- IC50 (second compound 0.316 µM): < 3.16 nM
- IC50 (second compound 1 µM): < 3.16 nM
- IC50 (second compound 3.16 µM): < 3.16 nM
- IC50 (second compound 10 µM): < 3.16 nM
- viability, T/C (second compound 0.1 µM, first compound 0.00316 µM): 20%
- viability, T/C (second compound 0.1 µM, first compound 0.01 µM): 14.8%
- viability, T/C [1]: 5.39%
- viability, T/C [2]: 2.15%
- viability, T/C [3]: 2.24%
- viability, T/C [4]: 2.08%
- viability, T/C (second compound 0.316 µM, first compound 0.00316 µM): 20.9%
- viability, T/C (second compound 0.316 µM, first compound 0.01 µM): 14.6%
- viability, T/C [7]: 6.07%
- viability, T/C [8]: 2.35%
- viability, T/C [9]: 6.21%
- viability, T/C [10]: 2.25%
- viability, T/C (second compound 1 µM, first compound 0.00316 µM): 22.7%
- viability, T/C (second compound 1 µM, first compound 0.01 µM): 16.1%
- viability, T/C [13]: 6.8%
- viability, T/C [14]: 2.59%
- viability, T/C [15]: 2.63%
- viability, T/C [16]: 4.14%
- viability, T/C (second compound 3.16 µM, first compound 0.00316 µM): 24.3%
- viability, T/C (second compound 3.16 µM, first compound 0.01 µM): 16.4%
- viability, T/C [19]: 6.64%
- viability, T/C [20]: 2.73%
- viability, T/C [21]: 2.91%
- viability, T/C [22]: 2.78%
- viability, T/C (second compound 10 µM, first compound 0.00316 µM): 24.7%
- viability, T/C (second compound 10 µM, first compound 0.01 µM): 17.3%
- viability, T/C [25]: 7.11%
- viability, T/C [26]: 2.96%
- viability, T/C [27]: 3.51%
- viability, T/C [28]: 3.29%
